Experimental data published in ChEMBL document CHEMBL1155350, “Antitubercular activity of alpha,omega-diaminoalkanes, H2N(CH2)nNH2” (Bioorg Med Chem Lett, 2009).
In brackets after ≈: the same amount, converted by molar mass. Activity calls are given as the source filed them. The calls are words filed in the database; no cut-off is given here.

How the values were obtained:
[1] = test system: Mycobacterium tuberculosis; test: Antimicrobial activity against Mycobacterium tuberculosis H37Rv ATCC 27294 assessed as minimum inhibitory concentration […] by micro plate Alamar blue assay; format: functional
[2] = Cytotoxicity against mouse J774 macrophage assessed as cell viability at 1 ug/mL after 48 hrs by MTT assay; format: cell-based; settings: J774 macrophage cells, read-out: Activity
[3] = Cytotoxicity against mouse J774 macrophage assessed as cell viability at 10 ug/mL after 48 hrs by MTT assay; format: cell-based; settings: J774 macrophage cells, read-out: Activity
[4] = Cytotoxicity against mouse J774 macrophage assessed as cell viability at 100 ug/mL after 48 hrs by MTT assay; format: cell-based; settings: J774 macrophage cells, read-out: Activity
[5] = Cytotoxicity against Mycobacterium bovis Bacillus Calmette-Guerin infected mouse J774 macrophage assessed as cell viability at 1 ug/mL after 48 hrs by MTT assay; format: cell-based; settings: J774 macrophage cells infected with Mycobacterium bovis BCG, read-out: Activity
[6] = Cytotoxicity against Mycobacterium bovis Bacillus Calmette-Guerin infected mouse J774 macrophage assessed as cell viability at 10 ug/mL after 48 hrs by MTT assay; format: cell-based; settings: J774 macrophage cells infected with Mycobacterium bovis BCG, read-out: Activity
[7] = Cytotoxicity against Mycobacterium bovis Bacillus Calmette-Guerin infected mouse J774 macrophage assessed as cell viability at 100 ug/mL after 48 hrs by MTT assay; format: cell-based; settings: J774 macrophage cells infected with Mycobacterium bovis BCG, read-out: Activity

SMILES	MIC [1]	viability at 48 h, 1 ug/mL [2] [%]	viability at 48 h, 10 ug/mL [3] [%]	viability at 48 h, 100 ug/mL [4] [%]	viability at 48 h, 1 ug/mL [5] [%]	viability at 48 h, 10 ug/mL [6] [%]	viability at 48 h, 100 ug/mL [7] [%]
NCCCCCCCCCCCCN	2.5 µg/mL (≈ 12.5 µM)	100	100	100	56	49	38
CC[C@@H](CO)NCCN[C@@H](CC)CO [ETHAMBUTOL]		100	93	82	92	88	85
NCCCN	inactive	100	100	100	100	94	89
NCCCCCN	inactive	100	100	100	100	100	98
NCCN [ETHYLENEDIAMINE]	inactive	100	100	100	35	23	29
NCCCCCCCCCCN	3.12 µg/mL (≈ 18.1 µM)	100	100	94	56	34	42
NCCCCCCCN	inactive	100	100	100	79	78	70
NCCCCCCN	inactive	100	100	100	98	92	76
NCCCCCCCCN [DIAMINOOCTANE]	inactive	100	100	95	68	64	64
NCCCCCCCCCN	3.12 µg/mL (≈ 19.7 µM)	100	100	100	100	100	71
NCCCCN [PUTRESCINE]	inactive	100	100	100	100	90	82
NCCCCCCCCCCCN	3.12 µg/mL (≈ 16.7 µM)	100	100	100	58	53	40
